According to ChEMBL document CHEMBL1201862, “PubChem BioAssay data set” (2004):
Calls of active or inactive are those of the source.

Tests used:
[1] = biological target: T1, Mitochondrial peptide methionine sulfoxide reductase (Bos taurus, UniProt P54149); assay: Absorbance-based biochemical high throughput dose response assay for activators of Methionine sulfoxide reductase A (MsrA).; type: functional
T1 sequence (P54149 whole entry): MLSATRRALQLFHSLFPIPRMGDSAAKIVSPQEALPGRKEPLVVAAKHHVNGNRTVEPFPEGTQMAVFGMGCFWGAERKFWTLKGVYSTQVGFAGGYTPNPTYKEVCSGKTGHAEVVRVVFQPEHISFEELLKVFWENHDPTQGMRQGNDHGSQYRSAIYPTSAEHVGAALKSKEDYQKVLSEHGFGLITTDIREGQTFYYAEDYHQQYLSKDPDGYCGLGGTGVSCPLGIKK

[2] = biological target: T2, Tyrosyl-DNA phosphodiesterase 2 (Homo sapiens, UniProt O95551); assay: human TDP2 enzyme inhibitors, dose response, biochemical, epi absorbance, IC50 (AID 743297)
T2 sequence (O95551 whole entry): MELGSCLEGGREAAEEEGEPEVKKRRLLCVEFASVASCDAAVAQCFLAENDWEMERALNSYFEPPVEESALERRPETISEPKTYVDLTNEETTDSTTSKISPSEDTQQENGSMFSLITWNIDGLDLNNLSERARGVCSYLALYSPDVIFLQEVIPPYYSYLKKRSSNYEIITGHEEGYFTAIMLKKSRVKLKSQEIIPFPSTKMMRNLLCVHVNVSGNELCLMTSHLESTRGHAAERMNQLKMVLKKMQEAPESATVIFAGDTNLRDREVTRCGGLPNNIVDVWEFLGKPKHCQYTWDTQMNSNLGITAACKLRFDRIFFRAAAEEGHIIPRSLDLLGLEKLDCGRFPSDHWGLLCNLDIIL

[3] = biological target: Dual specificity mitogen-activated protein kinase kinase 1 (Homo sapiens, UniProt Q02750); assay: Navigating the Kinome. Panel member name: MAP2K1; type: functional
[4] = biological target: T3, Serine/threonine-protein kinase TAO1 (Homo sapiens, UniProt Q7L7X3); type: functional
T3 sequence (Q7L7X3 whole entry): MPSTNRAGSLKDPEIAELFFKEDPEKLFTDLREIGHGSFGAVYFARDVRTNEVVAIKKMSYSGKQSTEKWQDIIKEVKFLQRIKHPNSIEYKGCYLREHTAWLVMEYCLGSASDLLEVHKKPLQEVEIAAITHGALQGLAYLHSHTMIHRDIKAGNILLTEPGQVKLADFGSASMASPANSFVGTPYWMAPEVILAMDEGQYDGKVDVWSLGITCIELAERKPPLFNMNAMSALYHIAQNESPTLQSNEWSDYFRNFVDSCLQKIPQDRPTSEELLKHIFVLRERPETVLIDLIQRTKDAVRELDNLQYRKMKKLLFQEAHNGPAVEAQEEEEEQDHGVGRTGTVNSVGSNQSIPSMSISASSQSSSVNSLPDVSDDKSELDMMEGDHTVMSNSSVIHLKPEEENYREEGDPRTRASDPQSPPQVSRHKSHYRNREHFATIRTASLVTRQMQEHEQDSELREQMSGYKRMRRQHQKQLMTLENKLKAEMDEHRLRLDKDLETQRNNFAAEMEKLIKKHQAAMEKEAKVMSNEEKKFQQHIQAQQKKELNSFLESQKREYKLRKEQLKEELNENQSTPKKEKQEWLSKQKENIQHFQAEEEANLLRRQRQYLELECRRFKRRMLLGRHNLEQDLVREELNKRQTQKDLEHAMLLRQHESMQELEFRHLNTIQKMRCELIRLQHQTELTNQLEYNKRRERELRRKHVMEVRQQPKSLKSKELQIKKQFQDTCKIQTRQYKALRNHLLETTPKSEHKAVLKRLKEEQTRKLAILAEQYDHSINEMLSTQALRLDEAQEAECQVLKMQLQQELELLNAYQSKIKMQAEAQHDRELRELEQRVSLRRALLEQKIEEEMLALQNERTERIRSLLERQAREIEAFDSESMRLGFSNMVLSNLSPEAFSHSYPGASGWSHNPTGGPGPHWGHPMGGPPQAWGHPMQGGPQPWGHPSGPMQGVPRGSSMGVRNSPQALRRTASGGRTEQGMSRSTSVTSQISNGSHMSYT

[5] = biological target: Dual specificity tyrosine-phosphorylation-regulated kinase 1A (Homo sapiens, UniProt Q13627); type: functional;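 further: measured against DYRK1A as one member of a broad kinome profiling panel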
[6] = biological target: Tyrosine-protein kinase ABL1 (Homo sapiens, UniProt P00519); type: functional
[7] = biological target: T4, Tyrosine-protein kinase JAK3 (Homo sapiens, UniProt P52333); type: functional
T4 sequence (P52333 whole entry): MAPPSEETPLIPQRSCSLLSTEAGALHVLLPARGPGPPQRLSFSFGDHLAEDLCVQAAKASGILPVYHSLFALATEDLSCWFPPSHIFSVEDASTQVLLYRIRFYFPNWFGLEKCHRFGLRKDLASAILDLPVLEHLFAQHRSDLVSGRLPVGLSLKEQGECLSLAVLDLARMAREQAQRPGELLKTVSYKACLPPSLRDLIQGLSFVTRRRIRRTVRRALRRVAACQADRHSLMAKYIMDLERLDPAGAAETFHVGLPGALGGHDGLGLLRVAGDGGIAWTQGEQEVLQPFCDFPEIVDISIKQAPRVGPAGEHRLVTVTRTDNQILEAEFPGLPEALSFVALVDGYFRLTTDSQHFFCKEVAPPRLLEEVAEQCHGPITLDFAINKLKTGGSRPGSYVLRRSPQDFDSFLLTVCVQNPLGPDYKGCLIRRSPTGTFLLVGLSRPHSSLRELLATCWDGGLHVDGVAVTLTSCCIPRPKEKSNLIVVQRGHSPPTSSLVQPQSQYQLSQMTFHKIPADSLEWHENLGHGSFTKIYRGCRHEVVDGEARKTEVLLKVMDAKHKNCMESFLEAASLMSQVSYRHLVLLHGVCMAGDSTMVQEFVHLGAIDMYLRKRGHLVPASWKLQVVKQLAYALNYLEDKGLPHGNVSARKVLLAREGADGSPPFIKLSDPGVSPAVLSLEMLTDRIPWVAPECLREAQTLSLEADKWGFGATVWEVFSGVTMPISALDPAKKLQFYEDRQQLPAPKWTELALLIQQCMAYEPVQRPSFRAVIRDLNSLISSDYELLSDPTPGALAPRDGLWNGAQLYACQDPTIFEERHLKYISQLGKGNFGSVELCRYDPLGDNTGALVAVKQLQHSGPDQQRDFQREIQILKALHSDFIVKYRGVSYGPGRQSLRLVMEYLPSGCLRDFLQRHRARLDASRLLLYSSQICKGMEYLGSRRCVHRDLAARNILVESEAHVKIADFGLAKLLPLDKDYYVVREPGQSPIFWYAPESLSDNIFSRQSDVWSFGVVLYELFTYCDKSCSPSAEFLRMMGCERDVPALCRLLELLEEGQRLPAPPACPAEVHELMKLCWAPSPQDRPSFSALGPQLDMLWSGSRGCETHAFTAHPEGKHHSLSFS

[8] = biological target: Cyclin-dependent kinase 9 (Homo sapiens, UniProt P50750); type: functional;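 further: value from the CDK9 entry of a kinome-spanning kinase panel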
Sequence of Cyclin-dependent kinase 9 (P50750 whole entry): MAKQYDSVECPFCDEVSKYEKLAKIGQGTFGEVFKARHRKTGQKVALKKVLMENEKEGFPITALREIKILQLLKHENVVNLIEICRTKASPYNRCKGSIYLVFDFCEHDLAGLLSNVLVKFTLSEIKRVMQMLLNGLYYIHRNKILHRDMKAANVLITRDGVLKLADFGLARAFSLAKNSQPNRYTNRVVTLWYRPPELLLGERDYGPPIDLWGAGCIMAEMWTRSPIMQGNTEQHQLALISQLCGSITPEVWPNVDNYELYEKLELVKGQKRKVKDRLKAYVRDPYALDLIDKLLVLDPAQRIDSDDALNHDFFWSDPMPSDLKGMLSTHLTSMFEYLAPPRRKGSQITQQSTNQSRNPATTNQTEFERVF

Sequence of Tyrosine-protein kinase ABL1 (P00519 whole entry): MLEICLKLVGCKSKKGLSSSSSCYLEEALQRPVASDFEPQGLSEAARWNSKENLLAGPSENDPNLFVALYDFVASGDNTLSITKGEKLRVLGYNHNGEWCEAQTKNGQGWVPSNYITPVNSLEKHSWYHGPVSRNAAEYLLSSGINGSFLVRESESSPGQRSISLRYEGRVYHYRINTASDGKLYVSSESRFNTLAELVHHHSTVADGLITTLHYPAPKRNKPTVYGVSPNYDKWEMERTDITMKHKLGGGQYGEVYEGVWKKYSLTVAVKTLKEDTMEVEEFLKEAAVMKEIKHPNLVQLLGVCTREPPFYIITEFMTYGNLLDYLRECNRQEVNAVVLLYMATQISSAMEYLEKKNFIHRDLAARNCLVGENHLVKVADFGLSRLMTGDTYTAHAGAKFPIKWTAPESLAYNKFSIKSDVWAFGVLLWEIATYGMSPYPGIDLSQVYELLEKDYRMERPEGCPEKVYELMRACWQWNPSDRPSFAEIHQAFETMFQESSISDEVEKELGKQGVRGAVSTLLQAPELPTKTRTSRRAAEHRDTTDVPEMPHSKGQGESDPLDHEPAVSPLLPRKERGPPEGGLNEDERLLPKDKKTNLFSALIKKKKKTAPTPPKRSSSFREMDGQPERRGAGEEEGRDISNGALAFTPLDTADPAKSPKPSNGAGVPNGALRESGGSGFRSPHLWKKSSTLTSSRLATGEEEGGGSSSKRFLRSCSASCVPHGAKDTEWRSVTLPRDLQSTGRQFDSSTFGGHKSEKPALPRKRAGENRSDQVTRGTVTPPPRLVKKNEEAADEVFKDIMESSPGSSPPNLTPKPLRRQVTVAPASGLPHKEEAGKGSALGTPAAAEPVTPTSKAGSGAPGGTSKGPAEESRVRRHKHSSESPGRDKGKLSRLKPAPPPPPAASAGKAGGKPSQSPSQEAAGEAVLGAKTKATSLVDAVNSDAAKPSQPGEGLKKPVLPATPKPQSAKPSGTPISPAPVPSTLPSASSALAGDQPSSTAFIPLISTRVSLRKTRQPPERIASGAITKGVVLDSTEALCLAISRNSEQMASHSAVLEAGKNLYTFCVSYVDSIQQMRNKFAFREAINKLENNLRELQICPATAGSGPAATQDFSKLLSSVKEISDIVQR
Sequence of Dual specificity mitogen-activated protein kinase kinase 1 (Q02750 whole entry): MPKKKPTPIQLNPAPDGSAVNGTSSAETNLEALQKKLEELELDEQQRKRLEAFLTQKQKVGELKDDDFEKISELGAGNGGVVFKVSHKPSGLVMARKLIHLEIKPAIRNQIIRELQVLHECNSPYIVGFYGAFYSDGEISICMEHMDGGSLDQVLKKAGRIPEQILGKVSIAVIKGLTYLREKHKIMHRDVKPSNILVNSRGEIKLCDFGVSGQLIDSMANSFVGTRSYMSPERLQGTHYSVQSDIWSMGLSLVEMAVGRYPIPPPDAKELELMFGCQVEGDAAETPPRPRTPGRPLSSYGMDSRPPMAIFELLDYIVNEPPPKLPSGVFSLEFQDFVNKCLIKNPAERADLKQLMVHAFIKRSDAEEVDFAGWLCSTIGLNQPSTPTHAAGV

CCN(CC)CCCC(C)n1c2nc(=O)[nH]c(=O)c-2nc2cc(Cl)ccc21 (stereo unspecified)
EC50 [1]: 32.9 µM (inactive) | IC50 [2]: 10.5 µM (inactive)

OC1CCC(Nc2nc(Cl)cc(-c3c[nH]c4ncccc34)n2)CC1 (stereo unspecified)
Ki [3]: 0.0316 µM (active) | pKi [3]: 7.5 | Ki [4]: 0.501 µM (active) | pKi [4]: 6.3 | Ki [5]: > 0.002 µM (inactive) | Ki [6]: 0.631 µM (active) | pKi [6]: 6.2 | Ki [7]: 0.0501 µM (active) | pKi [7]: 7.3 | Ki [8]: 0.00126 µM (active) | pKi [8]: 8.9

O=C(COC(=O)c1ccc([N+](=O)[O-])s1)Nc1ccc(F)cc1
EC50 [1]: > 104 µM (inactive) | IC50 [2]: 64.2 µM (inactive)

COc1cccc(CNC(=O)c2cnc(-c3ccncc3)nc2)c1
Ki [3]: > 3.16 µM (inactive) | Ki [4]: > 6.31 µM (inactive) | Ki [5]: > 2 µM (inactive) | Ki [6]: > 3.98 µM (inactive) | Ki [7]: > 5.01 µM (inactive) | Ki [8]: > 1.58 µM (inactive)
